Assay results: patent EP4591860A1, “OPHTHALMIC PHARMACEUTICAL COMPOSITION FOR THE PREVENTION AND TREATMENT OF DRY EYE SYNDROME” (FB Vision S.p.A., priority 2024, dated 2025)
Entries after “also recorded” stand apart in the source; their conditions may differ.

Assays:
Format in all cases: cell-based, human
[1] = system: HCEC cells; assay: MTT cell viability assay
Experimental: The primary culture of HCEC (cat. PCS-700-010) was purchased from the American Type Culture Collection (ATCC), Manassas, VA, USA.
The cells were resuspended in basal medium for corneal epithelial cells (devoid of serum and calcium) and supplemented with a growth kit provided by ATCC.
The cells were seeded at a density of 8 × 10^3 cells/well in a 96-well plate and cultured overnight. The cells were then treated with PGB or HA at different concentrations for 24 hours or with empty medium (control). After gently washing them with PBS, the cells were incubated with 0.5 mg/ml MTT solution in the dark for 4 hours. After removing the supernatant, DMSO was added to solubilize the formazan. Absorbance at 570 nm was measured with an ELISA reader (Multiskan MK3) for cell viability.

[2] = system: TNF-α; assay: LPS-stimulated cytokine secretion in HCEC (ELISA); details: 500 ng/mL LPS 24-hour; preincubation 1h; 100 µg/ml each, combination in 1/1 ratio
Experimental: (§1) IL-1b, IL-6 and TNF-a were detected with ELISA kits purchased from Abcam, Cambridge (MA) USA. Data are expressed as mean ± SEM, n=4; *p<0.001 with respect to LPS, **p<0.001 with respect to PGB or HA alone.
(§2) 24-hour exposure of HCECs to 500 ng/mL LPS induced maximal secretion of IL-1β, IL-6, and TNF-α, all of which are released in small amounts under basal conditions, as shown in Figure 22.

[3] = system: IL-6; assay: LPS-stimulated cytokine secretion in HCEC (ELISA); details: 500 ng/mL LPS 24-hour; preincubation 1h; 100 µg/ml each, combination in 1/1 ratio
Experimental: as §1, §2

[4] = system: IL-1β; assay: LPS-stimulated cytokine secretion in HCEC (ELISA); details: 500 ng/mL LPS 24-hour; preincubation 1h; 100 µg/ml each, combination in 1/1 ratio
Experimental: as §1, §2

[5] = system: NF-kβ p65; assay: NF-kβ p65 DNA binding activity test (TransAM ELISA) in LPS-stimulated HCEC; details: 500 ng/ml LPS, 12 hours; PGB 100 µg/ml, HA 100 µg/ml or combination
Experimental: To evaluate the ability of the synergistic composition of the invention to inhibit NF-kβ activity in corneal cells, the NF-kβ p65 DNA Binging activity test was used with the ELISA kit of the TransAM p65 transcription factor (Active Motif, Carlsbad, CA).
HCEC cells were stimulated with 500 ng/ml LPS in the presence and absence of PGB 100 µg/ml, HA 100 µg/ml or a combination of PGB+HA for 12 hours, as described here.
Subsequently, the DNA binding activity of NF-kβ p65 was determined. 12 hours after stimulation with LPS markedly promoted the DNA-binding activity of NF-kβ p65 and the expression of the pro-inflammatory cytokines IL-1β, IL-6 and TNF-α.

In the case of `CC(C)C[C@H](CN)CC(=O)O` [PGB, (S)-3-(aminomethyl)-5-methylhexanoic acid], the “cell viability (MTT)” value ([1]; 24 hours, 1000 µg/ml) is reported as “a certain reduction in cell viability”, the “cell viability (MTT), toxicity” value ([1]; 24 hours, 10, 50, 100, 200 µg/ml) is reported as “no evidence of toxicity; also recorded: did not show toxicity” and the “LPS-stimulated secretion of TNF-α” value [2] is reported as “significantly reduced”. The “LPS-stimulated secretion of IL-6” value [3] was “significantly reduced”, the “LPS-stimulated secretion of IL-1β” value [4] was “significantly reduced” and the “DNA-binding activity of NF-kβ p65” value [5] was “lower DNA-binding activity”.
